# Assay results taken from article PMC11672637, “7-O-Carboxylic Acid-Substituted 3-O-Alkyl Difluoroquercetin; An Aztreonam-Potentiating Agent Against Carbapenemase-Producing Pseudomonas aeruginosa Through Simultaneous Inhibition of Metallo-β-Lactamase and Efflux Pump” (Antibiotics, 2024).
# Where two headings read alike, the source gives them in different places.
# Tests used:
# Test in all cases: MIC / checkerboard with ATM
# Assay type in all cases: cell-based, P. aeruginosa
# PA-009, blaGES = settings: for MIC: Pseudomonas aeruginosa, read-out: MIC of ATM with 5, PA-009
# PA-036, blaNDM = settings: for MIC: Pseudomonas aeruginosa, read-out: MIC of ATM with 5, PA-036
# PA-029, blaIMP = settings: for MIC: Pseudomonas aeruginosa, read-out: MIC of ATM with 5, PA-029
# PA-034, blaNDM = settings: for MIC: Pseudomonas aeruginosa, read-out: MIC of ATM with 5, PA-034
# PA-031, blaNDM = settings: for MIC: Pseudomonas aeruginosa, read-out: MIC of ATM with 5, PA-031
# PA-025, blaNDM = settings: for MIC: Pseudomonas aeruginosa, read-out: MIC of ATM with 5, PA-025
# PA-035, blaGES = settings: for MIC: Pseudomonas aeruginosa, read-out: MIC of ATM with 5, PA-035
# PA-027, blaIMP = settings: for MIC: Pseudomonas aeruginosa, read-out: MIC of ATM with 5, PA-027
# PA-041, blaNDM = settings: PA-041
smiles,measurement,setting,value
"CC(C)(C)CCOc1c(-c2ccc(F)c(F)c2)oc2cc(OCC(=O)O)cc(O)c2c1=O [Compound 5, 2-((2-(3,4-Difluorophenyl)-3-(3,3-dimethylbutoxy)-5-hydroxy-4-oxo-4H-chromen-7-yl)oxy)acetic Acid]",Activity (FICI class),"PA-009, blaGES; PA-009","S (S (Synergy, FICI ≤ 0.5))"
same,Concentrations of ATM and 5 at lowest FICI (ATM/5),"PA-009, blaGES; PA-009",8/8
same,Lowest FICI (ATM/5),"PA-009, blaGES; PA-009",0.28
same,Minimum concentration of 5 to make sensitive to ATM,"PA-009, blaGES; PA-009",8 mg/L
same,Susceptibility to ATM,"PA-009, blaGES; PA-009, ATM/5","S (S (sensitive, MIC ≤ 8 mg/L))"
same,FD (fold decrease in MIC of ATM with 5),"PA-009, blaGES; PA-009, lowest-FICI combination",4
same,MIC,"PA-009, blaGES; 5 at 1 mg/L",32 µg/mL
same,MIC,"PA-009, blaGES; 5 at 2 mg/L",16 µg/mL
same,MIC,"PA-009, blaGES; 5 at 4 mg/L",16 µg/mL
same,MIC,"PA-009, blaGES; 5 at 8 mg/L",8 µg/mL
same,MIC,"PA-009, blaGES; 5 at 16 mg/L",8 µg/mL
same,MIC,"PA-009, blaGES; 5 at 32 mg/L",4 µg/mL
same,MIC,"PA-009, blaGES; 5 at 64 mg/L",4 µg/mL
same,Activity (FICI class),"PA-036, blaNDM; PA-036","S (S (Synergy, FICI ≤ 0.5))"
same,Concentrations of ATM and 5 at lowest FICI (ATM/5),"PA-036, blaNDM; PA-036",4/8
same,Lowest FICI (ATM/5),"PA-036, blaNDM; PA-036",0.27
same,Minimum concentration of 5 to make sensitive to ATM,"PA-036, blaNDM; PA-036",4 mg/L
same,Susceptibility to ATM,"PA-036, blaNDM; PA-036, ATM/5","S (S (sensitive, MIC ≤ 8 mg/L))"
same,FD (fold decrease in MIC of ATM with 5),"PA-036, blaNDM; PA-036, lowest-FICI combination",4
same,MIC,"PA-036, blaNDM; 5 at 1 mg/L",16 µg/mL
same,MIC,"PA-036, blaNDM; 5 at 2 mg/L",16 µg/mL
same,MIC,"PA-036, blaNDM; 5 at 4 mg/L",8 µg/mL
same,MIC,"PA-036, blaNDM; 5 at 8 mg/L",4 µg/mL
same,MIC,"PA-036, blaNDM; 5 at 16 mg/L",4 µg/mL
same,MIC,"PA-036, blaNDM; 5 at 32 mg/L",4 µg/mL
same,MIC,"PA-036, blaNDM; 5 at 64 mg/L",4 µg/mL
same,Activity (FICI class),"PA-029, blaIMP; PA-029","S (S (Synergy, FICI ≤ 0.5))"
same,Concentrations of ATM and 5 at lowest FICI (ATM/5),"PA-029, blaIMP; PA-029",8/16
same,Lowest FICI (ATM/5),"PA-029, blaIMP; PA-029",0.28
same,Minimum concentration of 5 to make sensitive to ATM,"PA-029, blaIMP; PA-029",16 mg/L
same,Susceptibility to ATM,"PA-029, blaIMP; PA-029, ATM/5","S (S (sensitive, MIC ≤ 8 mg/L))"
same,FD (fold decrease in MIC of ATM with 5),"PA-029, blaIMP; PA-029, lowest-FICI combination",4
same,MIC,"PA-029, blaIMP; 5 at 1 mg/L",32 µg/mL
same,MIC,"PA-029, blaIMP; 5 at 2 mg/L",32 µg/mL
same,MIC,"PA-029, blaIMP; 5 at 4 mg/L",16 µg/mL
same,MIC,"PA-029, blaIMP; 5 at 8 mg/L",16 µg/mL
same,MIC,"PA-029, blaIMP; 5 at 16 mg/L",8 µg/mL
same,MIC,"PA-029, blaIMP; 5 at 32 mg/L",8 µg/mL
same,MIC,"PA-029, blaIMP; 5 at 64 mg/L",8 µg/mL
same,Activity (FICI class),"PA-034, blaNDM; PA-034","S (S (Synergy, FICI ≤ 0.5))"
same,Concentrations of ATM and 5 at lowest FICI (ATM/5),"PA-034, blaNDM; PA-034",4/8
same,Lowest FICI (ATM/5),"PA-034, blaNDM; PA-034",0.27
same,Minimum concentration of 5 to make sensitive to ATM,"PA-034, blaNDM; PA-034",4 mg/L
same,Susceptibility to ATM,"PA-034, blaNDM; PA-034, ATM/5","S (S (sensitive, MIC ≤ 8 mg/L))"
same,FD (fold decrease in MIC of ATM with 5),"PA-034, blaNDM; PA-034, lowest-FICI combination",4
same,MIC,"PA-034, blaNDM; 5 at 1 mg/L",16 µg/mL
same,MIC,"PA-034, blaNDM; 5 at 2 mg/L",16 µg/mL
same,MIC,"PA-034, blaNDM; 5 at 4 mg/L",8 µg/mL
same,MIC,"PA-034, blaNDM; 5 at 8 mg/L",4 µg/mL
same,MIC,"PA-034, blaNDM; 5 at 16 mg/L",4 µg/mL
same,MIC,"PA-034, blaNDM; 5 at 32 mg/L",4 µg/mL
same,MIC,"PA-034, blaNDM; 5 at 64 mg/L",4 µg/mL
same,Activity (FICI class),"PA-031, blaNDM; PA-031","S (S (Synergy, FICI ≤ 0.5))"
same,Concentrations of ATM and 5 at lowest FICI (ATM/5),"PA-031, blaNDM; PA-031",1/8
same,Lowest FICI (ATM/5),"PA-031, blaNDM; PA-031",0.27
same,Susceptibility to ATM,"PA-031, blaNDM; PA-031, ATM/5","S (S (sensitive, MIC ≤ 8 mg/L))"
same,FD (fold decrease in MIC of ATM with 5),"PA-031, blaNDM; PA-031, lowest-FICI combination",4
same,MIC,"PA-031, blaNDM; 5 at 1 mg/L",2 µg/mL
same,MIC,"PA-031, blaNDM; 5 at 2 mg/L",2 µg/mL
same,MIC,"PA-031, blaNDM; 5 at 4 mg/L",2 µg/mL
same,MIC,"PA-031, blaNDM; 5 at 8 mg/L",1 µg/mL
same,MIC,"PA-031, blaNDM; 5 at 16 mg/L",1 µg/mL
same,MIC,"PA-031, blaNDM; 5 at 32 mg/L",1 µg/mL
same,MIC,"PA-031, blaNDM; 5 at 64 mg/L",1 µg/mL
same,Activity (FICI class),"PA-025, blaNDM; PA-025","S (S (Synergy, FICI ≤ 0.5))"
same,Concentrations of ATM and 5 at lowest FICI (ATM/5),"PA-025, blaNDM; PA-025",4/16
same,Lowest FICI (ATM/5),"PA-025, blaNDM; PA-025",0.28
same,Minimum concentration of 5 to make sensitive to ATM,"PA-025, blaNDM; PA-025",4 mg/L
same,Susceptibility to ATM,"PA-025, blaNDM; PA-025, ATM/5","S (S (sensitive, MIC ≤ 8 mg/L))"
same,FD (fold decrease in MIC of ATM with 5),"PA-025, blaNDM; PA-025, lowest-FICI combination",4
same,MIC,"PA-025, blaNDM; 5 at 1 mg/L",16 µg/mL
same,MIC,"PA-025, blaNDM; 5 at 2 mg/L",16 µg/mL
same,MIC,"PA-025, blaNDM; 5 at 4 mg/L",8 µg/mL
same,MIC,"PA-025, blaNDM; 5 at 8 mg/L",8 µg/mL
same,MIC,"PA-025, blaNDM; 5 at 16 mg/L",4 µg/mL
same,MIC,"PA-025, blaNDM; 5 at 32 mg/L",2 µg/mL
same,MIC,"PA-025, blaNDM; 5 at 64 mg/L",2 µg/mL
same,Activity (FICI class),"PA-035, blaGES; PA-035","S (S (Synergy, FICI ≤ 0.5))"
same,Concentrations of ATM and 5 at lowest FICI (ATM/5),"PA-035, blaGES; PA-035",2/8
same,Lowest FICI (ATM/5),"PA-035, blaGES; PA-035",0.27
same,Susceptibility to ATM,"PA-035, blaGES; PA-035, ATM/5","S (S (sensitive, MIC ≤ 8 mg/L))"
same,FD (fold decrease in MIC of ATM with 5),"PA-035, blaGES; PA-035, lowest-FICI combination",4
same,MIC,"PA-035, blaGES; 5 at 1 mg/L",8 µg/mL
same,MIC,"PA-035, blaGES; 5 at 2 mg/L",4 µg/mL
same,MIC,"PA-035, blaGES; 5 at 4 mg/L",4 µg/mL
same,MIC,"PA-035, blaGES; 5 at 8 mg/L",2 µg/mL
same,MIC,"PA-035, blaGES; 5 at 16 mg/L",2 µg/mL
same,MIC,"PA-035, blaGES; 5 at 32 mg/L",2 µg/mL
same,MIC,"PA-035, blaGES; 5 at 64 mg/L",2 µg/mL
same,Activity (FICI class),"PA-027, blaIMP; PA-027","S (S (Synergy, FICI ≤ 0.5))"
same,Concentrations of ATM and 5 at lowest FICI (ATM/5),"PA-027, blaIMP; PA-027",8/4
same,Lowest FICI (ATM/5),"PA-027, blaIMP; PA-027",0.26
same,Minimum concentration of 5 to make sensitive to ATM,"PA-027, blaIMP; PA-027",4 mg/L
same,Susceptibility to ATM,"PA-027, blaIMP; PA-027, ATM/5","S (S (sensitive, MIC ≤ 8 mg/L))"
same,FD (fold decrease in MIC of ATM with 5),"PA-027, blaIMP; PA-027, lowest-FICI combination",4
same,MIC,"PA-027, blaIMP; 5 at 1 mg/L",32 µg/mL
same,MIC,"PA-027, blaIMP; 5 at 2 mg/L",16 µg/mL
same,MIC,"PA-027, blaIMP; 5 at 4 mg/L",8 µg/mL
same,MIC,"PA-027, blaIMP; 5 at 8 mg/L",4 µg/mL
same,MIC,"PA-027, blaIMP; 5 at 16 mg/L",2 µg/mL
same,MIC,"PA-027, blaIMP; 5 at 32 mg/L",2 µg/mL
same,MIC,"PA-027, blaIMP; 5 at 64 mg/L",2 µg/mL
same,Activity (FICI class),"PA-041, blaNDM","S (S (Synergy, FICI ≤ 0.5))"
same,Concentrations of ATM and 5 at lowest FICI (ATM/5),"PA-041, blaNDM",1/32
same,Lowest FICI (ATM/5),"PA-041, blaNDM",0.31
